Tests used:
JAK1 = JAK1 (Homo sapiens (Human), UniProt P23458); test: Biochemical JAK1 kinase assay (LanthaScreen)
Method: (§1) Assay 1: Biochemical JAK and Tyk2 Kinase Assays
(§2) A panel of four LanthaScreen JAK biochemical assays (JAK1, 2, 3 and Tyk2) were carried in a common kinase reaction buffer (50 mM HEPES, pH 7.5, 0.01% Brij-35, 10 mM MgCl2, and 1 mM EGTA). Recombinant GST-tagged JAK enzymes and a GFP-tagged STAT1 peptide substrate were obtained from Life Technologies.
(§3) Serially or discretely diluted compounds were pre-incubated with each of the four JAK enzymes and the substrate in white 384-well microplates (Corning) at ambient temperature for 1 h. ATP was subsequently added to initiate the kinase reactions in 10 μL total volume, with 1% DMSO. […] Kinase reactions were allowed to proceed for 1 hour at ambient temperature before a 10 μL preparation of EDTA (10 mM final concentration) and Tb-anti-pSTAT1 (pTyr701) antibody (Life Technologies, 2 nM final concentration) in TR-FRET dilution buffer (Life Technologies) was added. The plates were allowed to incubate at ambient temperature for 1 h before being read on the EnVision reader (Perkin Elmer). Emission ratio signals (520 nm/495 nm) were recorded and utilized to calculate the percent inhibition values based on DMSO and background controls.
(§4) For dose-response analysis, percent inhibition data were plotted vs. compound concentrations, and IC50 values were determined from a 4-parameter robust fit model with the Prism software (GraphPad Software). Results were expressed as pIC50 (negative logarithm of IC50) and subsequently converted to pKi (negative logarithm of dissociation constant, Ki) using the Cheng-Prusoff equation.

JAK2 = JAK2 (Homo sapiens (Human), UniProt O60674); test: Biochemical JAK2 kinase assay (LanthaScreen)
Chain of JAK2 (O60674 whole entry): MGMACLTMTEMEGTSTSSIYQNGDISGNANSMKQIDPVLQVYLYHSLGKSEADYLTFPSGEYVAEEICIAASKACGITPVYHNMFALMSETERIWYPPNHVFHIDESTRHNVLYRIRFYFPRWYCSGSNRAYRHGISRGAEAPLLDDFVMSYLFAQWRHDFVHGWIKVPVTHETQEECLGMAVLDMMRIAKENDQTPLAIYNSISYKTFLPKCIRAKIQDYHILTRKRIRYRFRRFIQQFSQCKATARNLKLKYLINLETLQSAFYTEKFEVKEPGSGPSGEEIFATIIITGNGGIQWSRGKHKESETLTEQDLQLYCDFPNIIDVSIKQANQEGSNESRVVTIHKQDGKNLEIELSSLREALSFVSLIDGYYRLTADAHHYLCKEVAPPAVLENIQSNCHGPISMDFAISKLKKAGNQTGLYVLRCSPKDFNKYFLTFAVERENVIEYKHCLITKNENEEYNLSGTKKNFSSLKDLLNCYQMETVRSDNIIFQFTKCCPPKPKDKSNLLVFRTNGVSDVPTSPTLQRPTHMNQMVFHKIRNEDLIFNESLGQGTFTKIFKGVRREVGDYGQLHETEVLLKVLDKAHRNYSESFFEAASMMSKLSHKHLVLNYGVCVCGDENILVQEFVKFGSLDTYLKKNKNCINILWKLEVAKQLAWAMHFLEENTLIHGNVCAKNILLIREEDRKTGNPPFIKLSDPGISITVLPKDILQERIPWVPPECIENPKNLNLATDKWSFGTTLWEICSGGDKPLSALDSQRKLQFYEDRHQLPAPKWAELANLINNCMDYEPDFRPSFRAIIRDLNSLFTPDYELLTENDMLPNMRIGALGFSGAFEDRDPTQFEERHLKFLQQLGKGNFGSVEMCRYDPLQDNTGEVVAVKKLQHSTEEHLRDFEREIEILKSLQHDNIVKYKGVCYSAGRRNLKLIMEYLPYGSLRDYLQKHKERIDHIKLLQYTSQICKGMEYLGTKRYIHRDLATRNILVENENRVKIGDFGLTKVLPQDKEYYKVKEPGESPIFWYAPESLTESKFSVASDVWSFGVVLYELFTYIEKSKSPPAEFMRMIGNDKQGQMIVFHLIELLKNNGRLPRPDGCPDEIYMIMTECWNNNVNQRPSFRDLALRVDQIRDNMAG
Method: as §1, §2, §3, §4

JAK3 = JAK3 (Homo sapiens (Human), UniProt P52333); test: Biochemical JAK3 kinase assay (LanthaScreen); conditions: for JAK3 (pKi)-JAK1 (pKi): selectivity JAK3 over JAK1, difference of pKi
Chain of JAK3 (P52333 whole entry): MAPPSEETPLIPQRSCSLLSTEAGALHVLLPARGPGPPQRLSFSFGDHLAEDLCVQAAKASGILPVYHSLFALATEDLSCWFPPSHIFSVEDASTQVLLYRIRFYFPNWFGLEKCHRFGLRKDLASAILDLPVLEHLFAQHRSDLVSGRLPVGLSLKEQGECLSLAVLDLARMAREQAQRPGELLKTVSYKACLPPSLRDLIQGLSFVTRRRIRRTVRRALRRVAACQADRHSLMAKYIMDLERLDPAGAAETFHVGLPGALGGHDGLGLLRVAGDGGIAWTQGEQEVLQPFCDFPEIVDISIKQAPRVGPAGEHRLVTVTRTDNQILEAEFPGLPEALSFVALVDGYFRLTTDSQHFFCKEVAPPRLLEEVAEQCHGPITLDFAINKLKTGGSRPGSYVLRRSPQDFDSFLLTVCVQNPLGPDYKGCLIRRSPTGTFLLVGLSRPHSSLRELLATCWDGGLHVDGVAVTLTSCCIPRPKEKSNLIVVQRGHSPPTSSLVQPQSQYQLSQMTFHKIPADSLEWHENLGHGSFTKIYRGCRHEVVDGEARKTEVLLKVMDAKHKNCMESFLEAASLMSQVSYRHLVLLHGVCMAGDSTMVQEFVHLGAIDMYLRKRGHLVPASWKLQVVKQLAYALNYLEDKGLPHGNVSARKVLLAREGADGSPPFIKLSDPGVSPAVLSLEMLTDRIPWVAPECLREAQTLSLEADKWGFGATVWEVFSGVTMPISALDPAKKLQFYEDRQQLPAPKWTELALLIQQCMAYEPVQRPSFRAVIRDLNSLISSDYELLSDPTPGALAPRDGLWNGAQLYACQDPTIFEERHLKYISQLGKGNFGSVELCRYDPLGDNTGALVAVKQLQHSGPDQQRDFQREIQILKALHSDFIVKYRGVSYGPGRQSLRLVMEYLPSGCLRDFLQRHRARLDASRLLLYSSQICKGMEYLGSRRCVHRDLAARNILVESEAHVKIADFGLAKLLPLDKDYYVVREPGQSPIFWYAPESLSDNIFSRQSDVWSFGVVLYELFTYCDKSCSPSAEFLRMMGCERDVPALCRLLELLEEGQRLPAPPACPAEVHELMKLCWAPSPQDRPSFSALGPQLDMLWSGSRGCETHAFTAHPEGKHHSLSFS
Method: as §1, §2, §3, §4

Tyk2 = Tyk2 (Homo sapiens (Human), UniProt P29597); test: Biochemical Tyk2 kinase assay (LanthaScreen)
Chain of Tyk2 (P29597 whole entry): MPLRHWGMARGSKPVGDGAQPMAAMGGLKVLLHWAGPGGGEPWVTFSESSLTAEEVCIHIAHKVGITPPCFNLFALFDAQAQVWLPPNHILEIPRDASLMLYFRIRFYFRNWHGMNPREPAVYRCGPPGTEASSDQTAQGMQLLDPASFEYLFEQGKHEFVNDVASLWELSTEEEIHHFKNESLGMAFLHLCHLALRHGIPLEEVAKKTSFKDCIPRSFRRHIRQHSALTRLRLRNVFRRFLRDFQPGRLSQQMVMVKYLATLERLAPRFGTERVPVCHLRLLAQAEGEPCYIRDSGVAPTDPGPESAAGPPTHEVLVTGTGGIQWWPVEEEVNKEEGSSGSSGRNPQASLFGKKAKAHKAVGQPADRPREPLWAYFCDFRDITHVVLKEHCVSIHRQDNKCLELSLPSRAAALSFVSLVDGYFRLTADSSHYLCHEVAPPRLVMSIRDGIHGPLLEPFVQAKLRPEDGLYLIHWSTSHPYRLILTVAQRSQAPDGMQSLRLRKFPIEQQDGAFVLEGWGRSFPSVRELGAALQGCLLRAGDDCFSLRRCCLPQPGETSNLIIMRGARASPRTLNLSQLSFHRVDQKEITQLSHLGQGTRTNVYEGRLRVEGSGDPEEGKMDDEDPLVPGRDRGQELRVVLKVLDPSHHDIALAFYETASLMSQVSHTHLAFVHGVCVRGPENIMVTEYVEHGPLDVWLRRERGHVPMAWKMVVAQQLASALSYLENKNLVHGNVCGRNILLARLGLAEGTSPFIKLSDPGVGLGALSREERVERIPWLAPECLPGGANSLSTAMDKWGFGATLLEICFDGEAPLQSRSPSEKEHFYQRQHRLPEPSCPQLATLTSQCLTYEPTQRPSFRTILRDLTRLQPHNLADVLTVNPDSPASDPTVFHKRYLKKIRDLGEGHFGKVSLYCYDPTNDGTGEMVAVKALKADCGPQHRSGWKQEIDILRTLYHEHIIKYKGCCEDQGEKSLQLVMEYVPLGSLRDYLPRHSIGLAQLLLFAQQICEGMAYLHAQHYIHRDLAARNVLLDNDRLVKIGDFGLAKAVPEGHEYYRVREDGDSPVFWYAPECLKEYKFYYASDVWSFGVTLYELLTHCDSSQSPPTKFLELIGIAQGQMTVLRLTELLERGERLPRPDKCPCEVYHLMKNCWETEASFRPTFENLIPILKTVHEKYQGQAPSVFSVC
Method: as §1, §2, §3, §4

[1] = tested on: IL-2 stimulated STAT5 phosphorylation in Tall-1 human T cell line (JAK3); test: Cellular JAK3 potency assay: inhibition of IL-2 stimulated pSTAT5 in Tall-1 T cells; type: cell-based; conditions: IL-2 stimulated pSTAT5, Tall-1 T cells
Method: Assay 2: Cellular JAK3 Potency Assay: Inhibition of IL-2 Stimulated pSTAT5 in Tall-1 T Cells
The potency of test compounds for inhibition of interleukin-2 (IL-2) stimulated STAT5 phosphorylation was measured in the Tall-1 human T cell line (DSMZ) using AlphaLisa. Because IL-2 signals through JAK3, this assay provides a measure of JAK3 cellular potency.
Phosphorylated STAT5 was measured via the AlphaLISA SureFire Ultra pSTAT5 (Tyr694/699) kit (PerkinElmer).
Human T cells from the Tall-1 cell line were cultured in a 37° C., 5% CO2 humidified incubator in RPMI (Life Technologies) supplemented with 15% Heat Inactivated Fetal Bovine Serum (FBS, Life Technologies), 2 mM Glutamax (Life Technologies), 25 mM HEPES (Life Technologies) and 1× Pen/Strep (Life Technologies). Compounds were serially diluted in DMSO and dispensed acoustically to empty wells. Assay media (phenol red-free DMEM (Life Technologies) supplemented with 10% FBS (ATCC)) was dispensed (4 μL/well) and plates shaken at 900 rpm for 10 inns. Cells were seeded at 45,000 cells/well in assay media (4 μL/well), and incubated at 37° C., 5% CO2 for 1 hour, followed by the addition of IL-2 (R&D Systems; final concentration 300 ng/ml) in pre-warmed assay media (4 μL) for 30 minutes. After cytokine stimulation, cells were lysed with 6 ul of 3× AlphaLisa Lysis Buffer (PerkinElmer) containing 1× PhosStop and Complete tablets (Roche). The lysate was shaken at 900 rpm for 10 minutes at room temperature (RT). Phosphorylated STAT5 was measured via the pSTAT5 AlphaLisa kit (PerkinElmer). Freshly prepared acceptor bead mixture was dispensed onto lysate (5 μL) under green filtered <100 lux light. Plates were shaken at 900 rpm for 2 mins, briefly spun down, and incubated for 2 hrs at RT in the dark. Donor beads were dispensed (5 μL) under green filtered <100 lux light. Plates were shaken at 900 rpm for 2 minutes, briefly spun down, and incubated overnight at RT in the dark. Luminescence was measured with excitation at 689 nm and emission at 570 nm using an EnVision plate reader (PerkinElmer) under green filtered <100 lux light.
To determine the inhibitory potency of test compounds in response to IL-2, the average emission intensity of beads bound to pSTAT5 was measured in a human T cell line. IC50 values were determined from analysis of the inhibition curves of signal intensity versus compound concentration. Data are expressed as pIC50 (negative decadic logarithm IC50) values (mean standard deviation).

Chain of JAK1 (P23458 whole entry): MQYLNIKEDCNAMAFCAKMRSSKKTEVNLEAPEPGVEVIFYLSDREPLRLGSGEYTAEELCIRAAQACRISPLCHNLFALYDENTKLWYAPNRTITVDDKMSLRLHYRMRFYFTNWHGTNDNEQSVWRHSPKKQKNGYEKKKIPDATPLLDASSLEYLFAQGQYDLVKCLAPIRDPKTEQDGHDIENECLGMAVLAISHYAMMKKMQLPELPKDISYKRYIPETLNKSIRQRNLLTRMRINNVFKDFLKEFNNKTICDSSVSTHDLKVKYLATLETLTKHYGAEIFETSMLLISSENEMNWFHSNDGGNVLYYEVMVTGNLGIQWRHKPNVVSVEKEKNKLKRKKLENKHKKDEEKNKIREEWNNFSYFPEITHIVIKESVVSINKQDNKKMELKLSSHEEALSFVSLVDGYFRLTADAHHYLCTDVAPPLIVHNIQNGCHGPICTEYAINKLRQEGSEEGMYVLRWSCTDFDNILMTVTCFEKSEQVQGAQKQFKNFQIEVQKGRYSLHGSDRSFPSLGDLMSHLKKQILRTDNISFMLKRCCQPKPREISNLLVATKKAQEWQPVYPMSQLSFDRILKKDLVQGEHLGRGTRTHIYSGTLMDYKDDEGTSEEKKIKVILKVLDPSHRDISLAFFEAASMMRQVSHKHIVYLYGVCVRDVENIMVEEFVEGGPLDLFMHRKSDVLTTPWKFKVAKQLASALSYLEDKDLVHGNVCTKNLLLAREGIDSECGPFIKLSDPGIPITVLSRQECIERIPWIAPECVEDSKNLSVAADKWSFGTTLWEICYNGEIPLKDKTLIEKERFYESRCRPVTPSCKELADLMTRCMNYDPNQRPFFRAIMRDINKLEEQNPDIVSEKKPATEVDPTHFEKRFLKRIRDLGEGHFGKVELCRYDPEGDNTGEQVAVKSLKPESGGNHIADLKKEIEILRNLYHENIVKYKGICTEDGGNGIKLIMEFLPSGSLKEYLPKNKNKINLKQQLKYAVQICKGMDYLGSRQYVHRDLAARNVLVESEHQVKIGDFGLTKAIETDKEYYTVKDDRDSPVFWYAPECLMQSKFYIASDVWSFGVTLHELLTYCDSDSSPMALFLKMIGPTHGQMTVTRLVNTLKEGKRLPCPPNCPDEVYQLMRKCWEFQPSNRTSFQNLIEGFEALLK

| SMILES | JAK 1 (pKi) (JAK1) | JAK 2 (pKi) (JAK2) | JAK 3 (pKi) (JAK3) | JAK3 (pKi)-JAK1 (pKi) (JAK3) | Tyk 2 (pKi) (Tyk2) | Tall-1 (pIC50) [1] |
| --- | --- | --- | --- | --- | --- | --- |
| C=CC(=O)N1CC(CCn2c(=O)ccc3cnc(Nc4ccc(N5CCN(C)CC5)c(C#N)c4)nc32)C1 [Example 9, 5-((8-(2-(1-acryloylazetidin-3-yl)ethyl)-7-oxo-7,8-dihydropyrido[2,3-d]pyrimidin-2-yl)amino)-2-(4-methylpiperazin-1-yl)benzonitrile] | E (E represents a pKi value of 7 or below (Ki of 100 nM or above)) | E (E represents a pKi value of 7 or below (Ki of 100 nM or above)) | B (B represents pKi value between 9 and 10 (Ki between 1 nM and 0.1 nM)) | A (A represents a value of 3 or above) | E (E represents a pKi value of 7 or below (Ki of 100 nM or above)) | B (B represents a pC50 value between 6.7 (included) and 7.5 (IC50 between 200 nM and 32 nM)) |
| C=CC(=O)N1CC(CCn2c(=O)ccc3cnc(Nc4cccc(C(=O)N5CCCCC5)c4)nc32)C1 [Example 64] | E (E represents a pKi value of 7 or below (Ki of 100 nM or above)) | E (E represents a pKi value of 7 or below (Ki of 100 nM or above)) | B (B represents pKi value between 9 and 10 (Ki between 1 nM and 0.1 nM)) | A (A represents a value of 3 or above) | E (E represents a pKi value of 7 or below (Ki of 100 nM or above)) | C (C represents a pIC50 value between 6 and 6.7 (IC50 between 1 μM and 200 nM)) |
| C=CC(=O)N1CCN(CCn2c(=O)ccc3cnc(Nc4cnn(CCOCC)c4)nc32)[C@@H](C)C1 [Example 229] | E (E represents a pKi value of 7 or below (Ki of 100 nM or above)) | E (E represents a pKi value of 7 or below (Ki of 100 nM or above)) | B (B represents pKi value between 9 and 10 (Ki between 1 nM and 0.1 nM)) | A (A represents a value of 3 or above) | E (E represents a pKi value of 7 or below (Ki of 100 nM or above)) | B (B represents a pC50 value between 6.7 (included) and 7.5 (IC50 between 200 nM and 32 nM)) |
| C=CC(=O)N1CCN(CCn2c(=O)ccc3cnc(Nc4ccc(N5CCN(S(=O)(=O)C6COC6)CC5)cc4)nc32)CC1 [Example 148] | E (E represents a pKi value of 7 or below (Ki of 100 nM or above)) | E (E represents a pKi value of 7 or below (Ki of 100 nM or above)) | B (B represents pKi value between 9 and 10 (Ki between 1 nM and 0.1 nM)) | A (A represents a value of 3 or above) | E (E represents a pKi value of 7 or below (Ki of 100 nM or above)) | C (C represents a pIC50 value between 6 and 6.7 (IC50 between 1 μM and 200 nM)) |
| C=CC(=O)N1CCN(CCn2c(=O)ccc3cnc(Nc4ccc(N5CCN(S(=O)(=O)N(C)C)CC5)cc4)nc32)CC1 [Example 211] | E (E represents a pKi value of 7 or below (Ki of 100 nM or above)) | E (E represents a pKi value of 7 or below (Ki of 100 nM or above)) | A (A represents a pKi value≥10 (Ki≤0.1 nM)) | A (A represents a value of 3 or above) | E (E represents a pKi value of 7 or below (Ki of 100 nM or above)) | B (B represents a pC50 value between 6.7 (included) and 7.5 (IC50 between 200 nM and 32 nM)) |
| C=CC(=O)N1CC(CCn2c(=O)ccc3cnc(Nc4ccc(N5CCN(C(F)(F)F)CC5)cc4)nc32)C1 [Example 177] | E (E represents a pKi value of 7 or below (Ki of 100 nM or above)) | E (E represents a pKi value of 7 or below (Ki of 100 nM or above)) | B (B represents pKi value between 9 and 10 (Ki between 1 nM and 0.1 nM)) | A (A represents a value of 3 or above) | E (E represents a pKi value of 7 or below (Ki of 100 nM or above)) | B (B represents a pC50 value between 6.7 (included) and 7.5 (IC50 between 200 nM and 32 nM)) |
| C=CC(=O)N1CC(CCn2c(=O)ccc3cnc(Nc4cccc(N5CCN(S(=O)(=O)C6COC6)CC5)c4)nc32)C1 [Example 129] | E (E represents a pKi value of 7 or below (Ki of 100 nM or above)) | E (E represents a pKi value of 7 or below (Ki of 100 nM or above)) | A (A represents a pKi value≥10 (Ki≤0.1 nM)) | A (A represents a value of 3 or above) | E (E represents a pKi value of 7 or below (Ki of 100 nM or above)) | B (B represents a pC50 value between 6.7 (included) and 7.5 (IC50 between 200 nM and 32 nM)) |
| C=CC(=O)N1CCN(CCn2c(=O)ccc3cnc(Nc4cnn(C)c4)nc32)C2(CC2)C1 [Example 149] | E (E represents a pKi value of 7 or below (Ki of 100 nM or above)) | E (E represents a pKi value of 7 or below (Ki of 100 nM or above)) | B (B represents pKi value between 9 and 10 (Ki between 1 nM and 0.1 nM)) | A (A represents a value of 3 or above) | E (E represents a pKi value of 7 or below (Ki of 100 nM or above)) | C (C represents a pIC50 value between 6 and 6.7 (IC50 between 1 μM and 200 nM)) |
| C=CC(=O)N1CCN(CCn2c(=O)ccc3cnc(Nc4ccc(N5CCN(C)CC5)c(F)c4)nc32)CC1 [Example 39] | E (E represents a pKi value of 7 or below (Ki of 100 nM or above)) | E (E represents a pKi value of 7 or below (Ki of 100 nM or above)) | B (B represents pKi value between 9 and 10 (Ki between 1 nM and 0.1 nM)) | A (A represents a value of 3 or above) | E (E represents a pKi value of 7 or below (Ki of 100 nM or above)) | B (B represents a pC50 value between 6.7 (included) and 7.5 (IC50 between 200 nM and 32 nM)) |
| C=CC(=O)N1CCN(CCn2c(=O)ccc3cnc(Nc4ccc(N5CCN(C)CC5)c(Cl)c4)nc32)CC1 [Example 154] | E (E represents a pKi value of 7 or below (Ki of 100 nM or above)) | E (E represents a pKi value of 7 or below (Ki of 100 nM or above)) | B (B represents pKi value between 9 and 10 (Ki between 1 nM and 0.1 nM)) | A (A represents a value of 3 or above) | E (E represents a pKi value of 7 or below (Ki of 100 nM or above)) | B (B represents a pC50 value between 6.7 (included) and 7.5 (IC50 between 200 nM and 32 nM)) |
| C=CC(=O)N1CC(CCn2c(=O)ccc3cnc(Nc4cnn(C(C)(C)COC)c4)nc32)C1 [Example 58] | E (E represents a pKi value of 7 or below (Ki of 100 nM or above)) | E (E represents a pKi value of 7 or below (Ki of 100 nM or above)) | B (B represents pKi value between 9 and 10 (Ki between 1 nM and 0.1 nM)) | A (A represents a value of 3 or above) | E (E represents a pKi value of 7 or below (Ki of 100 nM or above)) | B (B represents a pC50 value between 6.7 (included) and 7.5 (IC50 between 200 nM and 32 nM)) |

Source: patent US11697648B2, “Fused pyrimidine pyridinone compounds as JAK inhibitors” (THERAVANCE BIOPHARMA R&D IP, LLC, priority 2019, dated 2023)
